Measured values published in ChEMBL document CHEMBL2331287, “Inhibition of mTOR Kinase and Cancer Treatment” (ACS Med Chem Lett, 2013).

Key:
[1] = Inhibition of mTORC2 in human PC3 cells assessed as reduction in phosphorylated AKT S473 level after 90 mins by immunofluorescence assay; format: cell-based; conditions: PC-3, 1.5 h
mTORC1 = mTORC1 (Homo sapiens, UniProt P42345); assay: Inhibition of mTORC1 in human PC3 cells assessed as reduction in phosphorylated 4E-BP1Thr37/46 level after 90 mins by immunofluorescence assay; format: cell-based, PC-3

SMILES | IC50 [1] | IC50 (mTORC1)
Cc1n[nH]c2c1c([C@@H]1C[C@H]3CC[C@@H](C1)N3C(=O)c1nnc[nH]1)nc1c(-c3ccc(-c4ccccc4)nc3)cnn12 | 1 nM | 100 nM
O=C(c1nnc[nH]1)N1[C@@H]2CC[C@H]1C[C@H](c1nc3c(-c4ccc(-c5ncc[nH]5)nc4)cnn3c3[nH]ccc13)C2 | 1 nM | 1 nM
